Assay results published in ChEMBL document CHEMBL5360582, “Caryophyllene Sesquiterpenes from a Chaetomium globosum Endophyte of the Canadian Medicinal Plant Empetrum nigrum” (J Nat Prod, 2023).
≈ marks a conversion by molar mass, not a printed value. Calls of active or inactive are those of the source. The calls are words filed in the database; no cut-off is given here.

What was measured:
[1] = tested on: Mycobacterium tuberculosis; test: Antimycobacterial activity against Mycobacterium tuberculosis H37Ra ATCC 25177 assessed as inhibition of bacterial growth at 100 microg/ml; assay type: functional, organism-based; details: dose 100.0 µg/ml
[2] = tested on: Pseudomonas aeruginosa; test: Antibacterial activity against Pseudomonas aeruginosa ATCC 10145 assessed as inhibition of bacterial growth at 100 microg/ml; assay type: functional, organism-based; details: dose 100.0 µg/ml
[3] = tested on: Candida albicans; test: Antifungal activity against Candida albicans ATCC 14053 assessed as inhibition of bacterial growth at 100 microg/ml; assay type: functional, organism-based; details: dose 100.0 µg/ml
[4] = tested on: Staphylococcus aureus; test: Antibacterial activity against Staphylococcus aureus ATCC 29213 assessed as inhibition of bacterial growth at 100 microg/ml; assay type: functional, organism-based; details: dose 100.0 µg/ml
[5] = tested on: Staphylococcus aureus; test: Antibacterial activity against Staphylococcus aureus ATCC 29213 assessed as inhibition of bacterial growth; assay type: functional, organism-based
[6] = tested on: Mycobacterium tuberculosis; test: Antimycobacterial activity against Mycobacterium tuberculosis H37Ra ATCC 25177 assessed as inhibition of bacterial growth; assay type: functional, organism-based
[7] = tested on: SMMC-7721; test: Cytotoxicity against human SMMC-7721 cells assessed as inhibition of cell growth incubated for 68 hrs by MTT assay; assay type: functional, cell-based; details: SMMC-7721, 68 h

Structure (SMILES): CC1(C)C[C@@H]2/C(CO)=C\C=C/[C@@](C)(O)CC[C@]21O
- Activity [1]: inactive
- Activity [2]: inactive
- Activity [3]: inactive
- Activity [4]: inactive

Structure (SMILES): C/C1=C/[C@@H](OC(=O)CCC(=O)O)/C=C(/C=O)[C@H]2CC(C)(C)[C@]2(O)CC1
- IC50 [5]: 83 µg/mL (≈ 237 µM)
- IC50 [6]: 36.8 µg/mL (≈ 105 µM)

Structure (SMILES): CC1(C)C[C@@H]2[C@@]3(CO)C=C[C@@H](O)[C@@]3(C)CC[C@]21O
- Activity [1]: inactive
- Activity [2]: inactive
- Activity [3]: inactive
- Activity [4]: inactive

Structure (SMILES): COc1cc([C@@H]2c3cc4c(cc3[C@@H](O[C@@H]3O[C@@H]5CO[C@@H](C)O[C@H]5[C@H](O)[C@H]3O)[C@H]3COC(=O)[C@H]23)OCO4)cc(OC)c1O [ETOPOSIDE]
- IC50 [7]: 23.2 µM

Structure (SMILES): CO[C@H]1[C@@H]2[C@@H](O)O[C@]3([C@H](OC(C)=O)C/C(C)=C\[C@@H]1OC)[C@H]2CC3(C)C
- IC50 [7]: 28.3 µM
